Marks after values point to notes of the source that are not given here.
What was measured:
[1] = test system: Puccinia recondita f. sp. tritici; assay: Test H: wheat leaf rust, curative spray on inoculated wheat seedlings, visual disease rating; settings: wheat leaf rust, curative; for Test H rating (% disease control): 100 = 100% disease control, 0 = no control relative to controls
Text: General protocol for preparing test suspensions for Tests A-J: the test compounds were first dissolved in acetone in an amount equal to 3% of the final volume and then suspended at the desired concentration (in ppm) in acetone and purified water (50/50 mix by volume) containing 250 ppm of the surfactant Trem® 014 (polyhydric alcohol esters). The resulting test suspensions were then used in Tests A-J. Spraying a 200 ppm test suspension to the point of run-off on the test plants was the equivalent of a rate of 500 g/ha. Unless otherwise indicated, the rating values indicate a 200 ppm test suspension was used. (An asterisk “*” next to the rating value indicates a 40 ppm test suspension was used.)
Wheat seedlings were inoculated with a spore suspension of Puccinia recondita f. sp. tritici (the causal agent of wheat leaf rust) and incubated in a saturated atmosphere at 20° C. for 24 h, and then moved to a growth chamber at 20° C. for 2 days. At the end of this time the test suspension was sprayed to the point of run-off, and then the seedlings were moved to a growth chamber at 20° C. for 6 days after which time visual disease ratings were made.

[2] = test system: Septoria nodorum; assay: Test F: Septoria glume blotch, preventive spray on wheat seedlings, visual disease rating; settings: Septoria glume blotch; for Test F rating (% disease control): 100 = 100% disease control, 0 = no control relative to controls
[3] = test system: Septoria tritici; assay: Test G: wheat leaf blotch, preventive spray on wheat seedlings, visual disease rating; settings: wheat leaf blotch; for Test G rating (% disease control): 100 = 100% disease control, 0 = no control relative to controls
[4] = test system: Puccinia recondita f. sp. tritici; assay: Test I: wheat leaf rust, preventive spray on wheat seedlings, visual disease rating; settings: wheat leaf rust, preventive; for Test I rating (% disease control): 100 = 100% disease control, 0 = no control relative to controls
[5] = test system: Alternaria solani; assay: Test C: tomato early blight, preventive spray on tomato seedlings, visual disease rating; settings: tomato early blight; for Test C rating (% disease control): 100 = 100% disease control, 0 = no control relative to controls
[6] = test system: Botrytis cinerea; assay: Test B: tomato Botrytis, preventive spray on tomato seedlings, visual disease rating; settings: tomato Botrytis; for Test B rating (% disease control): 100 = 100% disease control, 0 = no control relative to controls
[7] = test system: Erysiphe graminis f sp. tritici; assay: Test J: wheat powdery mildew, preventive spray on wheat seedlings, visual disease rating; settings: wheat powdery mildew; for Test J rating (% disease control): 100 = 100% disease control, 0 = no control relative to controls
[8] = rating marked with asterisk (*), meaning not given

SMILES	Test H rating (% disease control) [1] [%]	Test F rating (% disease control) [2] [%]	Test G rating (% disease control) [3] [%]	Test I rating (% disease control) [4] [%]	Test C rating (% disease control) [5] [%]	Test B rating (% disease control) [6] [%]	Test J rating (% disease control) [7] [%]	Test H rating (% disease control), marked * [1, 8]	Test F rating (% disease control), marked * [2, 8]	Test G rating (% disease control), marked * [3, 8]	Test I rating (% disease control), marked * [4, 8]	Test C rating (% disease control), marked * [5, 8]	Test B rating (% disease control), marked * [6, 8]	Test J rating (% disease control), marked * [7, 8]
COc1cc(F)c(Nc2c(-c3ccccc3F)c(C)nn2C)c(F)c1 [compound 183]	27	67	99	94	100	97	99							
Cc1nn(C)c(Nc2ccc(F)cc2)c1-c1ccccc1F [compound 184]	0	0	99	82	0	97	98							
COc1cc(F)c(-c2c(C)nn(C)c2Oc2ccc(Cl)c(C)c2)c(F)c1 [compound 185]	0	0	100	74	0	0	98							
COc1cc(F)c(-c2c(C)nn(C)c2Oc2ccc(Br)c(C)c2)c(F)c1 [compound 186]	0	0	99	54	0	0	93							
Cc1ccc(Oc2c(-c3c(F)cc(F)cc3F)c(C)nn2C)cc1F [compound 187]	0	0	20	9	0	33	13							
COc1cc(F)c(-c2c(C)nn(C)c2Oc2ccc(C)c(F)c2)c(F)c1 [compound 188]	0	0	100	97	0	87	97							
Cc1nn(C)c(Oc2ncc(F)cc2F)c1-c1ccc(F)cc1Cl [compound 189]	99	80	100	99	100	99	98							
COc1cc(F)c(Nc2c(-c3c(F)cccc3Cl)c(C)nn2C)c(F)c1 [compound 190]	94	80	100	100	99	99	99							
Cc1nn(C)c(Nc2c(F)cc(F)cc2F)c1-c1c(F)cccc1Cl [compound 191]	0	0	100	97	100	98	99							
Cc1nn(C)c(Nc2c(F)cc(C#N)cc2F)c1-c1c(F)cccc1Cl [compound 192]	0	73	100	99	100	97	99							
Cc1nn(C)c(Nc2ccc(F)cc2)c1-c1ccc(F)cc1F [compound 194]	0	0	99	91	86	97	99							
Cc1nn(C)c(Nc2ccc(Cl)cc2)c1-c1ccc(F)cc1F [compound 195]	0	60	100	98	97	100	97							
Cc1nn(C)c(Nc2ccc(C#N)cc2F)c1-c1c(F)cccc1F [compound 196]	9	73	100	98	94	99	98							
Cc1nn(C)c(Nc2cc(F)ccc2F)c1-c1c(F)cccc1F [compound 197]	0	95	99	79	0	97	96							
Cc1nn(C)c(Nc2cccc(F)c2F)c1-c1c(F)cccc1F [compound 198]	0	0	100	94	68	97	97							
COc1cc(F)ccc1Nc1c(-c2c(F)cccc2F)c(C)nn1C [compound 199]	0	0	99	68	86	99	98							
COc1cccc(Nc2c(-c3c(F)cccc3F)c(C)nn2C)c1 [compound 200]	0	0	97	0	0	82	94							
COc1ccc(Nc2c(-c3c(F)cccc3F)c(C)nn2C)c(Cl)c1 [compound 201]	18	20	100	97	97	99	99							
Cc1nn(C)c(Nc2ccc(F)cc2F)c1-c1cccc(F)c1F [compound 202]	0	0	99	28	0	99	99							
Cc1nn(C)c(Nc2c(F)cc(F)cc2F)c1-c1cccc(F)c1F [compound 203]	0	0	98	96	0	99	100							
COc1cc(F)c(Nc2c(-c3cccc(F)c3F)c(C)nn2C)c(F)c1 [compound 204]								0* %	0* %	99* %	86* %	77* %	100* %	99* %
Cc1nn(C)c(Nc2ccc(F)cc2)c1-c1cccc(F)c1F [compound 205]	0	0	99	91	17	100	100							
COc1cc(F)c(-c2c(C)nn(C)c2Oc2ccc(Cl)cc2)c(F)c1 [compound 206]	41	84	99	99	99	99	100							
Cc1nn(C)c(Nc2ccc(F)cc2Cl)c1-c1ccc(F)cc1F [compound 207]	0	64	100	99	93	100	100							
